A melting point compilation (Tetko et al.; mined from patent text by program, amines drawn as free bases though some values may be those of a salt)

Compound | melting point [°C]
CN(C)C1(c2ccccc2)CCC(CC(=O)NCCCCc2c[nH]c3ccccc23)CC1 (configuration not stated) | 186
COC(=O)Cc1ccc(OCCNC(=O)C2Cc3ccccc3N2S(=O)(=O)c2ccc(-c3ccc(F)cc3F)cc2)cc1 (configuration not stated) | 60 to 64
Nc1ncnc2c1c(-c1cccc(O)c1)nn2Cc1oc2ccccc2c(=O)c1-c1cccc(F)c1 | 280 to 283
COCOc1ccccc1-c1ccc(-c2ccc(C(=O)O)cc2)cc1-c1ccc2c(c1)C(C)(C)CCC2(C)C | 132 to 135
CC(=O)c1ccc(COC(=O)N2CCN(CC3(C)Cn4cc([N+](=O)[O-])nc4O3)CC2)cc1 (configuration not stated) | 101 to 102
COc1nc(C)nc(NC(=O)NS(=O)(=O)c2ccccc2C(=O)OC(C)C)n1 | 193 to 196
Cc1cc(N)nc(CCc2nc3cc(-c4ccc(S(=O)(=O)N(C)C)cc4)cnc3[nH]2)c1 | 157
COc1cc(COc2nn(-c3ccccc3)cc2-c2cnco2)ccc1OCc1nc(-c2ccco2)oc1C | 153 to 154
CC(O)CNc1cc(Cl)cc(NCC(C)O)c1[N+](=O)[O-] (configuration not stated) | 170
O=C(OCCO)c1nc(Cl)c(Cl)[nH]1 | 170
COC(OC)c1c(SC(F)(F)F)c(C#N)nn1-c1c(Cl)cc(C(F)(F)F)cc1Cl | 93
O=C(C=Cc1ccc(COC2OC(CO)C(O)C(O)C2O)o1)c1ccccc1 (configuration not stated) | 127
CCOC(=O)C1=C(C(=O)OCC)C(c2ccccc2[N+](=O)[O-])C(C(=O)OCC)=C(C(=O)OCC)N1 | 109
CC(C)(C)OC(=O)N1CCC(=O)N(CCCC=O)CC1 | 86 to 87
CCc1cccc2c3c([nH]c12)C(CC)(CC=N)OCC3 (configuration not stated) | 101 to 103
CC(=O)c1ccc(N)c(Br)c1 | 59 to 62
COc1ccc(-c2nc(SCc3cccc(CSc4ncnc5nc[nH]c45)c3)[nH]c2-c2ccc(OC)cc2)cc1 | 129 to 130
CCOCCS(=O)(=O)N1CC[C@@H](C(=O)N(C)Cc2cc(C(F)(F)F)cc(C(F)(F)F)c2)[C@H](c2ccc(F)cc2C)C1 (relative stereo) | 151 to 153
COCCOc1ccc(I)cc1 | 36 to 37
CCCCNC(=O)CCC(=NNC(N)=S)c1ccccc1 | 64 to 68
Cc1ccc2c(c1)OC(CCO)C(=O)N2 (configuration not stated) | 143 to 144
Cc1cc2c(cc1F)NC(=O)C2 | 168 to 171
CCN(CC)c1ccc2nc3c4ccccc4c(=Nc4ccc5ccccc5n4)cc-3oc2c1 | 234 to 236
CC(C)(C(O)c1ccc2c(c1)OCO2)[N+](=O)[O-] (configuration not stated) | 88 to 91

Compound | melting point [°C]
CC(C)NC(=O)N1C(=O)Cc2ccccc21 | 84 to 85.5
COC1C=C(Br)C(=O)CO1 (configuration not stated) | 74 to 75
NC(=O)c1c(I)c(C(=O)NC(CO)CO)c(I)c(C(=O)NC(CO)CO)c1I | 246 to 252
NC(=O)c1sc2nccc(N3CCCC(O)C3)c2c1N (configuration not stated) | 208 to 211
C=CCCCOc1cc(OCCCCCCCC)ccc1C(=O)O | 67 to 68
C1CC(C23CSC(SC2)SC3)C1 | 112 to 114
Oc1ccc(-n2nnnc2C2CC2)cc1 | 184
CONS(=O)(=O)c1ccc(C)cc1 | 116 to 117
CC(C)(C)OC(=O)CN1CC(c2ccco2)SCC(N2C(=O)c3ccccc3C2=O)C1=O (configuration not stated) | 158 to 161
CCN(CC)CCn1nc2c3c(c(CN)ccc31)Sc1ccc(OC)cc1-2 | 74 to 76
CSc1nc(-c2ccc(N)cc2)c[nH]1 | 85 to 86
CCOC(=O)C(=C1NCCCN1OC)[N+](=O)[O-] | 177 to 178
CCCCc1c(C=O)cc(OC)c2ccccc12 | 51 to 52
CC(=O)C(=CS(=O)(=O)N(C)C)c1cccc([N+](=O)[O-])c1 | 115 to 120
CNCCCN1CCc2cc(OC)c(OC)cc2CC1=O | 68 to 70
Cc1cccc(Oc2cccc(C#CC(C)N(O)C(N)=O)c2)n1 (configuration not stated) | 133 to 135
COC(=O)CC[C@H](NC(=O)c1ccc(I)cc1F)C(=O)OC | 94 to 96
CC(C)(C)C(=O)OCN1C(=O)CN(CCN2CC(=O)N(COC(=O)C(C)(C)C)C(=O)C2)CC1=O | 114 to 118
Cc1ccc(Oc2ccc(-c3ccccc3)cc2)cc1 | 97 to 99
CCOC(=O)[C@H]1C=C[C@H](c2ccccc2)n2c(=O)n(CCCl)c(=O)n21 (relative stereo) | 117 to 119
CC1(C)C(=O)Nc2ccc(C#N)cc2N(C2CC2)C1=O | 252 to 253
NCC1CCN(C(c2ccccc2)c2ccccc2)CC1 | 80
Cc1cc(CCCCCOc2ccc(-c3nnco3)cc2)on1 | 84 to 86

The next lines start with the values.

melting point [°C] | Compound
125 to 127 | CN(C)c1ccc2c3c(cccc13)C(=O)c1ccccc1-2
176 to 177 | CCOC(=O)c1cccc(-n2cc(-c3ccccc3)c3c(N)ncnc32)c1
123 to 125 | Cc1ccc(S(=O)(=O)Nc2nc(-c3cc(F)cc(C(F)(F)F)c3)cs2)cc1
109 to 110 | O=C(Cc1cccs1)Nc1cc(N2CC(c3ccccc3)OC2=O)ccn1 (configuration not stated)
137 to 138 | CC(C#Cc1cccc(Oc2ccc(F)cc2)c1)N(O)C(N)=O (configuration not stated)
169 to 171 | Cc1cccc(CC(=O)N[C@H]2C[C@H](C(=O)O)Nc3cc(Cl)cc(Cl)c32)c1 (relative stereo)
184 to 185 | CCN(c1ccc2c(c1)OCO2)c1nc(=O)c2cccnc2s1
97 to 98 | CCOC(=O)ON(C(=O)NC)c1ccc(Cl)c(Cl)c1
114 to 115 | CCOc1nn(Cc2ccc(OCc3csc(-c4ccccc4)n3)cc2)cc1CCC(=O)O
145 to 147 | C=C1c2ccccc2CC(NO)c2ccccc21 (configuration not stated)
199 to 200 | O=Cc1cccc2cc3c(cc12)sc1ccccc13
175 to 176 | N#Cc1cnc2cc(/C=C/CN3CCOCC3)ccc2c1Nc1ccc(Cl)cc1Cl
310 | O=S(=O)(Nc1ccncc1)c1ccc(Br)s1
164 to 166 | O=C1NCCN1Cc1ccc(Cl)cc1
138 to 140 | Clc1ccccc1-c1cccc2c1OC(CNCC1CC1)CO2 (configuration not stated)
231 to 233 | Cc1cc(C(=O)c2ccccc2)c(-n2c(C)nnc2CNC(=O)c2cc3ccccc3[nH]2)s1
245 | CN(C)C(=O)N1CCC2(CC1)CN=C(c1cc3cccc(N(C)S(=O)(=O)c4cccs4)c3[nH]1)S2
> 250 | CCOC(=O)c1nc2c(=O)[nH]c3cc(C(F)(F)F)ccc3n2c1CNc1ccc2c(c1)OCO2
195 to 197 | COc1c(F)cc(-c2c(-c3ccc(S(C)(=O)=O)cc3)cnn(-c3ccc(F)c(Cl)c3)c2=O)cc1F
158 to 159 | O=C(c1ccc(Cl)cc1)c1ccc(N2N=CCNC2=O)cc1Cl
111 to 112 | Cc1c(Br)csc1-c1nc(-c2c(F)cccc2Cl)nn1C
152 to 154 | CCOC(=O)C1CSCCN1C(=O)Nc1ccc(Cl)cc1 (configuration not stated)
103 | O=S1(=O)c2cccc3cccc(c23)N1CCCN1CCN(c2cccc(F)c2)CC1
160 to 162 | NC(=O)c1ccc(-c2ccccc2OCC2CC2)[nH]c1=O
120 to 122 | OC1(c2ccc(F)cc2)CCC2CN(Cc3ccccc3)CCC2C1 (configuration not stated)
